Measurements published in US20030027286A1, “Bacterial promoters and methods of use” (priority 2000, published 2003).

What was measured:
[1] = tested on: Staphylococcus aureus cells expressing antisense to the β subunit of gyrase; experiment: Antibiotic IC50 plus/minus xylose in Staphylococcus aureus expressing antisense to gyrase β subunit; assay type: cell-based; conditions: antisense to gyrase β subunit under Xyl-T5; 12 mM vs 0 mM xylose; FIG. 15
Method: Sensitized cells were also used to identify the pathway in which a gene required for proliferation of Staphylococcus aureus lies. Antibiotics of various chemical classes and modes of action were purchased from chemical suppliers, for example Sigma Chemicals (St. Louis, Mo.). Stock solutions were prepared by dissolving each antibiotic in an appropriate aqueous solution based on information provided by the manufacturer. The final working solution of each antibiotic contained no more than 0.2% (w/v) of any organic solvent.
To determine its potency against a bacterial strain containing an antisense nucleic acid complementary to the sequence encoding the Beta (>) subunit of gyrase (which is required for proliferation) under the control of the Xyl-T5 fusion promoter, each antibiotic was serially diluted two or three fold in growth medium supplemented with the appropriate antibiotic for maintenance of the anti-sense construct. At least ten dilutions were prepared for each antibiotic.
Aliquots (25 μL) of each dilution were transferred to discrete wells of a 384-well microplate (the assay plate) using a multi-channel pipette. Quadruplicate wells were used for each dilution of an antibiotic under each treatment condition (plus and minus inducer). Each assay plate retained twenty wells for cell growth controls (growth media replacing antibiotic), ten wells for each treatment (plus and minus inducer, in this example xylose). Half the assay plate contained induced cells (in this example Staphylococcus aureus cells) and appropriate concentrations of inducer (in this example xylose) to maintain the state of induction while the other half of the assay plate contained non-induced cells in the absence of inducer.
Cells of a bacterial clone containing a construct in which expression of antisense complementary to the sequence encoding the β subunit of gyrase under the control of a xylose inducible promoter were grown into exponential growth (OD600 0.2 to 0.3) and then diluted 1:100 into fresh media containing either 12 mM or 0 mM inducer (xylose). These cultures were incubated at 37° C. for 2.5 hr. The presence of inducer (xylose) in the medium initiates and maintains production of antisense RNA from the antisense construct, in this case. After a 2.5 hr incubation, induced and non-induced cells were respectively diluted into an assay medium containing an appropriate concentration of the antibiotic for the maintenance of the anti-sense construct. In addition, medium used to dilute induced cells was supplemented with 24 mM xylose so that addition to the assay plate would result in a final xylose concentration of 12 mM. The cells were diluted to a final OD600 value of 0.0004.
Induced and non-induced cell suspensions were dispensed (25 :l/well) into the appropriate wells of the assay plate as discussed previously. The plate was then loaded into a plate reader and incubated at constant temperature while cell growth was monitored in each well by the measurement of light scattering at 595 nm. Growth was monitored every 5 minutes until the cell culture attained a stationary growth phase. For each concentration of antibiotic, a percentage inhibition of growth was calculated at the time point corresponding to mid-exponential growth for the associated control wells (no antibiotic, plus or minus xylose). For each antibiotic and condition (plus or minus xylose), plots of percent inhibition versus Log of antibiotic concentration were generated and IC50s determined.

[2] = tested on: E. coli expressing antisense RNA; experiment: Antibiotic sensitivity of E. coli sensitized by IPTG-induced antisense RNA; assay type: cell-based, Escherichia coli; conditions: for sensitivity to antibiotic of antisense-expressing clones: initial experiments
From the text: The effectiveness of the above cell-based assay was validated using constructs expressing antisense RNA to the proliferation required E. coli genes rplL, rplJ, and rplW encoding ribosomal proteins L7/L12, L10 and L23 respectively. These proteins are part of the protein synthesis apparatus of the cell and as such are required for proliferation. These constructs were used to test the effect of antisense expression on cell sensitivity to antibiotics known to bind to the ribosome and thereby inhibit protein synthesis. Constructs expressing antisense RNA to several other genes (elaD, visC, yohH, and atpE/B), the products of which are not involved in protein synthesis were used for comparison.
First, pLex5BA (Krause et al. 1997. J. Mol. Biol. 274: 365, the disclosure of which is incorporated herein by reference in its entirety) expression vectors containing antisense constructs to either rplW or to elaD were introduced into separate E. coli cell populations. Vector introduction is a technique well known to those of ordinary skill in the art. The expression vectors of this example contain IPTG inducible promoters that drive the expression of the antisense RNA in the presence of the inducer. However, those skilled in the art will appreciate that other inducible promoters may also be used. Suitable expression vectors are also well known in the art. The E. coli antisense clones to genes encoding ribosomal proteins L7/L12, L10 and L23 were used to test the effect of antisense expression on cell sensitivity to the antibiotics known to bind to these proteins. […]
The cell populations were exposed to a range of IPTG concentrations in liquid medium to obtain the growth inhibitory dose curve for each clone. First, seed cultures were grown to a particular turbidity that is measured by the optical density (OD) of the growth solution. […] The cells were grown for up to 15 hours and the extent of growth was determined by measuring the optical density of the cultures at 600 nm. […]

SMILES | potency in induced cells as compared to uninduced cells [1] | other results
CO/N=C(\C(=O)N[C@@H]1C(=O)N2C(C(=O)O)=C(COC(C)=O)CS[C@H]12)c1csc(N)n1 [cefotaxime] | not significantly different | 
CO[C@@]1(NC(=O)Cc2cccs2)C(=O)N2C(C(=O)O)=C(COC(N)=O)CS[C@@H]21 [cefoxitin] | not significantly different | 
CC[C@H]1OC(=O)[C@H](C)[C@@H](O[C@H]2C[C@@](C)(OC)[C@@H](O)[C@H](C)O2)[C@H](C)[C@@H](O[C@@H]2O[C@H](C)C[C@H](N(C)C)[C@H]2O)[C@](C)(O)C[C@@H](C)C(=O)[C@H](C)[C@@H](O)[C@]1(C)O [erythromycin] |  | sensitivity to antibiotic of antisense-expressing clones ([2]; clones antisense to non-protein synthesis genes elaD, atpB/E and visC): do not; sensitivity to antibiotic of antisense-expressing clones ([2]; clones antisense to protein synthesis genes (L7/L12 & L10, L7/L12 alone, L22, L18, rRNA, Elongation Factor G)): increased sensitivity
CC(=O)O[C@H]1C[C@@]2(C)[C@@H](C[C@@H](O)[C@H]3[C@@]4(C)CC[C@@H](O)[C@@H](C)[C@@H]4CC[C@@]32C)/C1=C(\CCC=C(C)C)C(=O)O [fusidic acid] | not significantly different | 
CCC[C@@H]1C[C@@H](C(=O)N[C@@H]([C@H]2O[C@H](SC)[C@H](O)[C@@H](O)[C@H]2O)[C@@H](C)O)N(C)C1 [lincomycin] | not significantly different | 
CCn1cc(C(=O)O)c(=O)c2ccc(C)nc21 [nalidixic acid] |  | sensitivity to antibiotic of antisense-induced cells ([2]; E. coli expressing antisense to rplL and rplJ (reduced L7/L12), IPTG): does not show increased sensitivity
CO[C@@H]1[C@@H](OC(N)=O)[C@@H](O)[C@H](Oc2ccc3c(O)c(NC(=O)c4ccc(O)c(CC=C(C)C)c4)c(=O)oc3c2C)OC1(C)C [novobiocin] | significantly different | 
NC[C@H]1O[C@H](O[C@H]2[C@H](O)[C@@H](O[C@H]3O[C@H](CO)[C@@H](O)[C@H](N)[C@H]3O)[C@H](N)C[C@@H]2N)[C@H](N)C[C@@H]1O [tobramycin] | not significantly different | 
COc1cc(Cc2cnc(N)nc2N)cc(OC)c1OC [trimethoprim] | not significantly different | 
CN[C@H](CC(C)C)C(=O)N[C@H]1C(=O)N[C@@H](CC(N)=O)C(=O)N[C@H]2C(=O)N[C@H]3C(=O)N[C@H](C(=O)N[C@H](C(=O)O)c4cc(O)cc(O)c4-c4cc3ccc4O)[C@H](O)c3ccc(c(Cl)c3)Oc3cc2cc(c3O[C@@H]2O[C@H](CO)[C@@H](O)[C@H](O)[C@H]2O[C@H]2C[C@](C)(N)[C@H](O)[C@H](C)O2)Oc2ccc(cc2Cl)[C@H]1O [vancomycin] | not significantly different | 
